Source: patent US12024506B2, “Compounds” (Oxford University Innovation Limited, priority 2018, dated 2024)

Assays:
[1] = tested on: H358 cells (ATCC CRL-5807); assay: Cell viability assay 1 (CellTiter-Glo), H358 cells; assay type: cell-based; settings: Homo sapiens, NCI-H358, 48 h, first value of the cell, read-out: Cell Viability H358 (concentration that decreases cell viability by 50%)
How it was run: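 H358 cells were grown in RPMI-1640 with 10% FCS and 2 mM L-glutamine, plated at 5000 cells/well and allowed to adhere overnight. Compound was added in 0.5% DMSO final for 48 h at 37° C. Viability was read by CellTiter-Glo luminescence, with the 50% viability-reducing concentration derived from dose-response curves.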

[2] = tested on: DLD1 cells (ATCC CCL-221); assay: Cell viability assay 1 (CellTiter-Glo), DLD1 cells; assay type: cell-based; settings: Homo sapiens, DLD-1 cells, 48 h, second value of the cell, read-out: Cell Viability DLD-1 (concentration that decreases cell viability by 50%)
How it was run: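 DLD1 cells grown in RPMI-1640 with 10% FCS, 2 mM L-glutamine, 37 °C, 5% CO2, plated overnight then exposed to compound (0.5% DMSO) for 48 h. Viability by CellTiter-Glo luminescence; value is concentration reducing viability by 50% from dose-response curves.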

[3] = molecular target: T1, GST-human KRas166 (G12V) GPPNHP (Homo sapiens, UniProt P01116, G12V); assay: KRas small-molecule screening by SPR (Biacore T200); assay type: binding; settings: compound 100 uM, 5% DMSO buffer; immobilised GST-KRas166 (G12V) GPPNHP
T1 construct: made in house; host or cells: E. coli C41(DE3)
How it was run: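 Biacore T200 screen: compounds at 100 uM final in 5% DMSO buffer (100 mM NaCl, 5 mM MgCl2) over GPPNHP-bound GST-KRas166 G12V captured by anti-GST antibody (10,000–15,000 RU) versus GST-only channel. Expected 1:1 Rmax 63 RU; DMSO solvent correction applied.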

Compound	IC50 [1] [µM]	IC50 [2] [µM]	SPR Response Units [3] [Response Units]
COc1nc(-c2cccc3c2OCCO3)ccc1Nc1cccc(CN2CCNCC2)c1 [Example 207, [6-(2,3-Dihydro-benzo[1,4]dioxin-5-yl)-2-methoxy-pyridin-3-yl]-(3-piperazin-1-ylmethyl-phenyl)-amine]	5.8	22	1189
COc1nc(-c2cccc3c2OCCO3)ccc1Nc1ccc(CNCC2CCNCC2)cc1 [Example 178, [6-(2,3-Dihydro-benzo[1,4]dioxin-5-yl)-2-methoxy-pyridin-3-yl]-(4-{[(piperidin-4-ylmethyl)-amino]-methyl}-phenyl)-amine]	1.8	0.27	150
COc1cccc(-c2cccc3c2O[C@@H](CNC(=O)c2ccc(OCCN(C)C)cc2)CO3)n1 [Example 41, 4-(2-Dimethylamino-ethoxy)-N-[(S)-8-(6-methoxy-pyridin-2-yl)-2,3-dihydrobenzo [1,4]dioxin-2-ylmethyl]-benzamide]	48	20	60
NCc1ccc(C(=O)N2CCN(c3cccc4c3OCCO4)CC2)cc1 [Example 184, (4-Aminomethyl-phenyl)-[4-(2,3-dihydro-benzo[1,4]dioxin-5-yl)-piperazin-1-yl]-methanone]	3.6	1.2	10
COc1nc(-c2cccc3c2OCCO3)ccc1Nc1cccc(C(=O)NCC2CCN(C)CC2)c1 [Example 163, 3-[6-(2,3-Dihydro-benzo[1,4]dioxin-5-yl)-2-methoxy-pyridin-3-ylamino]-N-(1-methyl-piperidin-4-ylmethyl)-benzamide]	8.9	0.74	192
COc1nc(-c2cccc3c2OCCO3)ccc1Nc1ccc(CN2CCN(Cc3cccnc3)CC2)cc1 [Example 199, [6-(2,3-Dihydro-benzo[1,4]dioxin-5-yl)-2-methoxy-pyridin-3-yl]-[4-(4-pyridin-3-ylmethyl-piperazin-1-ylmethyl)-phenyl]-amine]	24.2	6.5	93
COc1nc(-c2cccc3c2OCCO3)ccc1Nc1cccc(C(=O)NCc2cc[nH]c(=O)c2)c1 [Example 165, 3-[6-(2,3-Dihydro-benzo[1,4]dioxin-5-yl)-2-methoxy-pyridin-3-ylamino]-N-(2-oxo-1,2-dihydro-pyridin-4-ylmethyl)-benzamide]	18.3	11.1	114
COc1nc(-c2cccc3c2OCCO3)ccc1Nc1cccc([C@H]2CCCN2)c1 [Example 74, [6-(2,3-Dihydro-benzo[1,4]dioxin-5-yl)-2-methoxy-pyridin-3-yl]-((R)-3-pyrrolidin-2-yl-phenyl)-amine]	3.11	6	110
COc1nc(-c2cccc3c2OCCO3)ccc1Nc1cccc(CNC(=O)c2cccnc2)c1 [Example 79, N-{3-[6-(2,3-Dihydro-benzo[1,4]dioxin-5-yl)-2-methoxy-pyridin-3-ylamino]-benzyl}-nicotinamide]	18	16.5	47
COc1cccc(-c2cccc3c2OC(CNC(=O)c2coc(CN4CCOCC4)c2)CO3)n1 (stereo not drawn) [Example 46, 5-Morpholin-4-ylmethyl-furan-3-carboxylic acid [8-(6-methoxy-pyridin-2-yl)-2,3-dihydro-benzo[1,4]dioxin-2-ylmethyl]-amide]	> 100	> 100	148
COc1nc(-c2cccc3c2OCCO3)ccc1Nc1cccc(CNC(=O)c2ccncc2)c1 [Example 80, N-{3-[6-(2,3-Dihydro-benzo[1,4]dioxin-5-yl)-2-methoxy-pyridin-3-ylamino]-benzyl}-isonicotinamide]	16.5	13.4	51
COc1nc(-c2cccc3c2OCCO3)ccc1Nc1ccc(CNCc2cc[nH]c(=O)c2)cc1 [Example 170, 4-({4-[6-(2,3-Dihydro-benzo[1,4]dioxin-5-yl)-2-methoxy-pyridin-3-ylamino]-benzylamino}-methyl)-1H-pyridin-2-one]	13.6	2	284
COc1nc(-c2cccc3c2OCCO3)ccc1Nc1cccc(C(=O)NCc2cccc(C)n2)c1 [Example 162, 3-[6-(2,3-Dihydro-benzo[1,4]dioxin-5-yl)-2-methoxy-pyridin-3-ylamino]-N-(6-methyl-pyridin-2-ylmethyl)-benzamide]	27.9	3.9	36
COc1cc(NC(=O)C2CNCCO2)cc(-c2cccc3c2O[C@H](CNC(=O)c2ccc(CN4CCN(C)CC4)o2)CO3)n1 (stereo partly drawn) [Example 130, Morpholine-2-carboxylic acid{2-methoxy-6-[(R)-3-({[5-(4-methyl-piperazin-1-ylmethyl)-furan-2-carbonyl]-amino}-methyl)-2,3-dihydro-benzo[1,4]dioxin-5-yl]-pyridin-4-yl}-amide]	13.6	11.9	61
CN1CCN(Cc2ccc(C(=O)NCC3COc4cccc(-c5ccc(OCc6ccccc6)cn5)c4O3)o2)CC1 (stereo not drawn) [Example 109, 5-(4-Methyl-piperazin-1-ylmethyl)-furan-2-carboxylic acid [8-(5-benzyloxy-pyridin-2-yl)-2,3-dihydro-benzo[1,4]dioxin-2-ylmethyl]-amide]	> 100	9	114
COc1cccc(-c2cccc3c2O[C@H](CNC(=O)c2ccc(OCCN(C)C)cc2)CO3)n1 [Example 40, 4-(2-Dimethylamino-ethoxy)-N-[(R)-8-(6-methoxy-pyridin-2-yl)-2,3-dihydro-benzo[1,4]dioxin-2-ylmethyl]-benzamide]	52	12	58
